Source: US9365572B2, “PI3K and/or mTOR inhibitor” (XUANZHU PHARMA CO., LTD., priority 2012, dated 2016)

Tested on: Glutamate, Kainate
Assay: Radioligand binding assay No. 232700
Settings: test substance 10 μM; rat

## Nc1ccc(-c2ccc3ncc4c(=O)[nH]c(=O)n(-c5cccc(C(F)(F)F)c5)c4c3n2)cn1 [Compound 5, 9-(6-aminopyridin-3-yl)-1-(3-(trifluoromethyl)phenyl)pyrimido[5,4-c][1,5]naphthyridine-2,4(1H,3H)-dione]
  Inhibitory rate (%), Glutamate, Kainate: 35%
